Several values for one entry are separate records, joined by “and”; a condition that tells them apart may be missing. Identical values can stand only once. Like-named read-outs stand apart in the source and are kept apart here.
Assays:
[1] = system: Influenza A (H1N1) virus PR8 strain; test: Mouse pneumonia model infected with influenza A (H1N1) virus PR8 strain (lung index); format: in vivo, ICR mice; details: Table 3 (Example 14)
Description: (§1) ICR mice were taken and randomly divided by weight class: normal control group, model control group, oseltamivir control group, compound 4, compound F4, compound F5, compound 5, and compound 7 according to their weight class, and each drug was given in two dosage groups (10 mice in each group). Except for the normal control group, mice were slightly anesthetized with ether and infected with 15 LD50 H1N1 influenza virus liquid (FM1/PR8 strain) by nasal drops (30 μl per each animal). The administration was started on the day of infection at 0.2 ml/10 g by gavage each time once a day for 4 days, and the normal control and model control groups were gavaged with distilled water under the same conditions. The mice were weighed and dissected on Day 5, and lung was weighed to calculate lung index and lung index inhibition. The results were statistically processed using t-test for comparison between groups.
(§2) ICR mice were taken and randomly divided into 9 groups according to the body weight: a normal control group, model control group, oseltamivir control group, and two dosage groups of Compound 9, Compound 12 and Compound 2, 10 mice in each group. Except the normal control group, mice were slightly anesthetized with ether and infected with 15 LD50 H1N1/PR8 influenza virus liquid by nasal drops at 30 μl per mouse. The administration was started on the day of infection, at 0.2 ml/10 g each time by gavage once a day for 4 days, and the normal control and model control groups were gavaged with distilled water under the same conditions. The mice were weighed and dissected on Day 5, and lungs were weighed to calculate lung index and lung index inhibition. The results were statistically processed using t-test for comparison between groups.

[2] = Acute toxicity test in mice (single gavage, 14-day observation); format: in vivo; details: for mortality rate of animals: 14 days observation
Description: Seventy ICR mice, weighing 17-21 g, were randomly divided into 7 groups according to fasting body weight: a normal control group and 6 dose groups of 475, 633, 844, 1125, 1500 and 2000 mg of the test drug (compound 4)/kg, 10 mice in each group, 50/50 male and female. After fasting for about 15 h, each dosing group was administered once by gavage in a volume of 40 ml/kg, and the control group was gavaged with an equal volume of 0.5% sodium carboxymethylcellulose solution once/day, and the animals were observed continuously for 14 days after administration of the drug to observe the death of the animals.
Thirty ICR mice, weighing 17-21 g, were randomly divided into three groups according to their fasting body weight: a normal control group and 2000 mg and 4000 mg of test drug (Compound 12)/kg dose group, 10 mice in each group, 50/50 male and female. After fasting for about 15 h, each dosing group was given the drug once by gavage in a volume of 40 ml/kg, and the control group was given an equal volume of 0.5% sodium carboxymethylcellulose solution by gavage once/day, and the deaths of the animals were observed continuously for 14 days after the administration of the drug.

ACE2 receptor = ACE2 receptor (Homo sapiens, UniProt Q9BYF1); test: ACE2-293T/CMC cell membrane chromatography binding; details: ACE2-293T/CMC column
Chain of ACE2 receptor (Q9BYF1 18-805): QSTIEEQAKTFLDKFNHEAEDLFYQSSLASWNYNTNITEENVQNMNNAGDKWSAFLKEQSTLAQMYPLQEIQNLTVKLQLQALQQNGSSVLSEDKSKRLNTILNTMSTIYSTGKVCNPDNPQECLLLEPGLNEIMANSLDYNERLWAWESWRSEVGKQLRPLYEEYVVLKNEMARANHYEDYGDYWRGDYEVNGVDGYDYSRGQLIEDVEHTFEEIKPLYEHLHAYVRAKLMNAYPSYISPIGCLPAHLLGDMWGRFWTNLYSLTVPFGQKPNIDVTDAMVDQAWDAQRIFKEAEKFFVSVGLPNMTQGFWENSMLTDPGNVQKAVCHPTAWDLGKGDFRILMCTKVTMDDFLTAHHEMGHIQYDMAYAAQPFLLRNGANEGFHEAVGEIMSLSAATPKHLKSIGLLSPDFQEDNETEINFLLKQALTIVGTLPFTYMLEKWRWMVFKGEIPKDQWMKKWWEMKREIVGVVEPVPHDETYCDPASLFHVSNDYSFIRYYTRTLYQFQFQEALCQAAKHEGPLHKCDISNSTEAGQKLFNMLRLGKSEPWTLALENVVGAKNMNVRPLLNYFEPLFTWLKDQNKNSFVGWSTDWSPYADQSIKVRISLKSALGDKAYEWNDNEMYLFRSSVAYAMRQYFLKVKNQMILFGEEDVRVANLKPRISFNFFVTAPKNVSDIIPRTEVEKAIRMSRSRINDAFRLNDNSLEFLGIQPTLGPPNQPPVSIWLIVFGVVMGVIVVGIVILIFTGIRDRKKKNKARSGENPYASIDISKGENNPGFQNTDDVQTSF

SARS-CoV-2 = test: Antiviral CPE assay against SARS-CoV-2 in VeroE6 cells; format: cell-based; details: 100 TCID50, read-out: Inhibition rate (%) of viral CPE
human coronavirus OC43 = format: in vivo; details: Table 6 (Example 17)
[3] = system: Influenza A (H1N1) virus FM1 strain; test: Mouse pneumonia model infected with influenza A (H1N1) virus FM1 strain (lung index); format: in vivo, ICR mice
Description: ICR mice were taken and randomly divided into: normal control group, model control group, ribavirin control group, compound 4, compound F1, compound F2, and compound F3 according to their weight class, and each drug was given in two dosage groups (10 mice in each group). Except for the normal control group, mice were slightly anesthetized with ether and infected with 15 LD50 H1N1 influenza virus liquid FM1 strain by nasal drops (30 μl per animal). The administration was started on the day of infection at 0.2 ml/10 g by gavage each time once a day for 4 days, and the normal control and model control groups were gavaged with distilled water under the same conditions. The mice were weighed and dissected on Day 5, and the lung was weighed to calculate lung index and lung index inhibition. The results were statistically processed using t-test for comparison between groups.
as §1, §2

[4] = system: Sendai strain of parainfluenza virus; format: in vivo
[5] = system: Human Coronavirus 229E (HCoV-229E); test: animal or person; format: in vivo
[6] = 7.5 mg/kg gavage once a day for 4 days
[7] = dose groups of 1125 mg drug/kg and above
[8] = Table 7 (Example 18), 3.75 mg/kg/d gavage for 4 days
[9] = Table 7 (Example 18), 7.5 mg/kg/d gavage for 4 days
[10] = Table 7 (Example 18), 15 mg/kg/d gavage for 4 days
[11] = Table 11 (Example 24), 7.5 mg/kg/d gavage for 4 days
[12] = Table 11 (Example 24), 15 mg/kg/d gavage for 4 days

In the case of `O=c1c(-c2ccccc2)coc2cc(OCCNC3CC3)ccc12` [Compound 4], the “inhibition rate %” value [1, 6] is reported as 23.91%, the lung index [1, 6] is reported as 0.98 ± 0.11 and the lung index ([1]; 15 mg/kg gavage once a day for 4 days) is reported as 0.83 ± 0.10. The “inhibition rate %” value ([1]; 15 mg/kg gavage once a day for 4 days, 15 mg/kg) was 54.04% and 60.27%, the “mortality rate of animals” value ([2]; 475 mg/kg single gavage) was 0% and the “mortality rate of animals” value ([2]; 633 mg/kg single gavage) was 0%. The “mortality rate of animals” value ([2]; 844 mg/kg single gavage) was 0%, the “mortality rate of animals” value ([2]; 1125 mg/kg single gavage) was 20% and the “mortality rate of animals” value ([2]; 1500 mg/kg single gavage) was 80%. For the same compound, the “mortality rate of animals” value ([2]; 2000 mg/kg single gavage) was 100%, the LD50 ([2]; Bliss method, single gavage, mice) was 1299.054 mg of drug/kg and the “maximum non-adverse effect dose” value ([2]; both, ICR, mouse, in vivo, 14 days) was 475 mg of drug/kg. The “peak of the deaths after the drug” value [2, 7] was 24 to 48 h, the “time of animal deaths after the drug” value [2, 7] was no more than 4 days and the maximum non-lethal dose ([2]; single gavage, mice) was 844 mg of drug/kg. For the same compound, the Kd (ACE2 receptor) was 1.07 µM, the inhibition at 1.95 µg/mL (SARS-CoV-2; Severe acute respiratory syndrome coronavirus 2, Vero C1008, drug concentration 1.95 μg/mL) was 6.67 ± 2.89% and the inhibition at 3.9 µg/mL (SARS-CoV-2; Severe acute respiratory syndrome coronavirus 2, Vero C1008, drug concentration 3.9 μg/mL) was 25 ± 5%. For the same compound, the inhibition at 7.8 µg/mL (SARS-CoV-2; Severe acute respiratory syndrome coronavirus 2, Vero C1008, drug concentration 7.8 μg/mL) was 76.7 ± 2.89%, the inhibition at 15.6 µg/mL (SARS-CoV-2; Severe acute respiratory syndrome coronavirus 2, Vero C1008, drug concentration 15.6 μg/mL) was 90 ± 5% and the “inhibition rate %” value (human coronavirus OC43; 3.75 mg/kg/d gavage for 4 days) was 33.28%. The lung index (human coronavirus OC43; 3.75 mg/kg/d gavage for 4 days) was 0.81 ± 0.08 g lung weight × 100/g body weight, the “inhibition rate %” value (human coronavirus OC43; 7.5 mg/kg/d gavage for 4 days) was 32.42% and the lung index (human coronavirus OC43; 7.5 mg/kg/d gavage for 4 days) was 0.82 ± 0.05 g lung weight × 100/g body weight. The “inhibition rate %” value (human coronavirus OC43; 15 mg/kg/d gavage for 4 days) was 47.43%, the lung index (human coronavirus OC43; 15 mg/kg/d gavage for 4 days) was 0.79 ± 0.10 g lung weight × 100/g body weight and the inhibition in vivo at 25 mg/kg ([3]; Influenza A virus, H1N1, po, 96 h, Table 1 (Example 13), 25 mg/kg gavage once a day for 4 days, read-out: inhibition rate (%)) was 23.7%. It also gave an inhibition in vivo at 50 mg/kg ([3]; Influenza A virus, H1N1, po, 96 h, Table 1 (Example 13), 50 mg/kg gavage once a day for 4 days, read-out: inhibition rate (%)) of 39.3%, an inhibition in vivo at 20 mg/kg ([3]; Influenza A virus, H1N1, po, 96 h, Table 2 (Example 14), 20 mg/kg gavage once a day for 4 days, read-out: inhibition rate (%)) of 15.1% and an inhibition in vivo at 40 mg/kg ([3]; Influenza A virus, H1N1, po, 96 h, Table 2 (Example 14), 40 mg/kg gavage once a day for 4 days, read-out: inhibition rate (%)) of 54%. The lung index ([3]; Table 1 (Example 13), 25 mg/kg gavage once a day for 4 days) was 1.09 ± 0.13, the lung index ([3]; Table 1 (Example 13), 50 mg/kg gavage once a day for 4 days) was 1.01 ± 0.12 and the lung index ([3]; Table 2 (Example 14), 20 mg/kg gavage once a day for 4 days) was 1.04 ± 0.12. The lung index ([3]; Table 2 (Example 14), 40 mg/kg gavage once a day for 4 days) was 0.89 ± 0.20, the “inhibition rate %” value [4, 8] was 18.11% and the lung index [4, 8] was 0.73 ± 0.07 lung weight/100 g body weight. The “inhibition rate %” value [4, 9] was 26.20%, the lung index [4, 9] was 0.72 ± 0.05 lung weight/100 g body weight and the “inhibition rate %” value [4, 10] was 46.39%. For the same compound, the lung index [4, 10] was 0.70 ± 0.05 lung weight/100 g body weight, the inhibition rate % [4, 11] was 54.48% and the lung index [4, 11] was 0.77 ± 0.04 Lung weight * 100/body weight. For the same compound, the inhibition rate % [4, 12] was 45.45%, the lung index [4, 12] was 0.78 ± 0.04 Lung weight * 100/body weight and the inhibition in vivo at 40 mg/kg/day ([5]; Human coronavirus 229E, in Mus musculus, po, 96 h, Table 4 (Example 15), 40 mg/kg/d gavage for 4 days, read-out: inhibition rate (%)) was 41.9%. For the same compound, the inhibition in vivo at 50 mg/kg/day ([5]; Human coronavirus 229E, in Mus musculus, po, 96 h, Table 4 (Example 15), 50 mg/kg/d gavage for 4 days, read-out: inhibition rate (%)) was 41%, the inhibition in vivo at 7.5 mg/kg/day ([5]; Human coronavirus 229E, in Mus musculus, po, 96 h, Table 5 (Example 16), 7.5 mg/kg/d gavage for 4 days, read-out: inhibition rate (%)) was 44.3% and the inhibition in vivo at 15 mg/kg/day ([5]; Human coronavirus 229E, in Mus musculus, po, 96 h, Table 5 (Example 16), 15 mg/kg/d gavage for 4 days, read-out: inhibition rate (%)) was 76.5%. The inhibition in vivo at 30 mg/kg/day ([5]; Human coronavirus 229E, in Mus musculus, po, 96 h, Table 5 (Example 16), 30 mg/kg/d gavage for 4 days, read-out: inhibition rate (%)) was 86.5%, the inhibition in vivo at 7.5 mg/kg/day ([5]; Human coronavirus 229E, in Mus musculus, po, 96 h, Table 10 (Example 23), 7.5 mg/kg/d gavage for 4 days, read-out: inhibition rate (%)) was 50% and the lung index ([5]; Table 4 (Example 15), 40 mg/kg/d gavage for 4 days) was 0.76 ± 0.02 g lung weight × 100/g body weight. The lung index ([5]; Table 4 (Example 15), 50 mg/kg/d gavage for 4 days) was 0.76 ± 0.08 g lung weight × 100/g body weight, the lung index ([5]; Table 5 (Example 16), 7.5 mg/kg/d gavage for 4 days) was 0.71 ± 0.11 g lung weight × 100/g body weight and the lung index ([5]; Table 5 (Example 16), 15 mg/kg/d gavage for 4 days) was 0.67 ± 0.08 g lung weight × 100/g body weight. For the same compound, the lung index ([5]; Table 5 (Example 16), 30 mg/kg/d gavage for 4 days) was 0.66 ± 0.05 g lung weight × 100/g body weight and the lung index ([5]; Table 10 (Example 23), 7.5 mg/kg/d gavage for 4 days) was 0.81 ± 0.03 g lung weight × 100/g body weight.

From patent publication US20250154121A1, “CYCLIC(ALKYL)(AMINO)ALKOXY-SUBSTITUTED ARYL-PYRONE COMPOUND AND USE THEREOF” (priority 2022, published 2025)
